Residue numbers refer to the chain shown, from its start. Where a name gives a salt, the structure may show the parent alone.
How the values were obtained:
FLT3-ITD Ba/F3 cells = target: T1, FLT3-ITD Ba/F3 cells (Homo sapiens, UniProt P36888, cells depend on it, form not given); test: Growth inhibitory activity against Ba/F3 cell line; type: cell-based; conditions: Ba/F3 expressing FLT3-ITD; 72 hours; cell titer glo; read-out: IC50 (uM) FLT3-ITD
T1 sequence (P36888 1-993): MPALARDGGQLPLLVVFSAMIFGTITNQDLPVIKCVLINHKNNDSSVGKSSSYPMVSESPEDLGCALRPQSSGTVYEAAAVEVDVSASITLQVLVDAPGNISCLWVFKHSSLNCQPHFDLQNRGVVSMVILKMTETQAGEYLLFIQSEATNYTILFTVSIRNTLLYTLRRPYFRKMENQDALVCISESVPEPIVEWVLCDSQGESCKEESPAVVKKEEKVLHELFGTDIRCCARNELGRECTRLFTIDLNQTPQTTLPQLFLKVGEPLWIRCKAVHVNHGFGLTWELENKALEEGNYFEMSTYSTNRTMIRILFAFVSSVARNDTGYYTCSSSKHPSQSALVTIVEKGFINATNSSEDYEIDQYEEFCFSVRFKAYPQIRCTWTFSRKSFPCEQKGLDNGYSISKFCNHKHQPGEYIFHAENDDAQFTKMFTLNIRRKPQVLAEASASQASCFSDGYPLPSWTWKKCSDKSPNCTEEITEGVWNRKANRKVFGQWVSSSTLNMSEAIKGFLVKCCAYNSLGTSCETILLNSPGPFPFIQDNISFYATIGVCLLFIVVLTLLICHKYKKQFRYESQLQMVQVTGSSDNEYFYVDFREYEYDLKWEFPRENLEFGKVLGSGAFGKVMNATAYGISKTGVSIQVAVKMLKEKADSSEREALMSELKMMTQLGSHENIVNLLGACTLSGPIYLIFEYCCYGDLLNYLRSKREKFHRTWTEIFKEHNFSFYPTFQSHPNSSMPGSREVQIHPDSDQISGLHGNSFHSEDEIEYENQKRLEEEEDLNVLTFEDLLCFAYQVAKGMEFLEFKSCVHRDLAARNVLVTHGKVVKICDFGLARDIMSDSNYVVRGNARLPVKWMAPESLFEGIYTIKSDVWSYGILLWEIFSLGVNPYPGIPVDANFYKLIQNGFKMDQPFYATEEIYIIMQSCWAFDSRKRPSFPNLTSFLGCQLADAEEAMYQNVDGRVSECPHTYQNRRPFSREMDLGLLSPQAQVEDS
Procedure, shortened: (§1)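 Ba/F3 cells carrying FLT3 mutants grown in RPMI with 10% FBS, exposed 72 h to ten 3-fold dilutions of compound starting from 1 mM DMSO stock. Viability read by CellTiter-Glo luminescence; GI50 fitted from signal versus final concentration.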

FLT3-D835Y Ba/F3 cells = target: T2, FLT3-D835Y Ba/F3 cells (Homo sapiens, UniProt P36888, D835Y, cells depend on it); test: Growth inhibitory activity against Ba/F3 cell line; type: cell-based; conditions: Ba/F3 expressing FLT3-D835Y; 72 hours; cell titer glo; read-out: IC50 (uM) FLT3-D835Y
T2 sequence (P36888 1-993 D835Y): T1 sequence (P36888 1-993) with D835Y
Procedure, shortened: as §1

Parental Ba/F3 cells = test: Growth inhibitory activity against Ba/F3 cell line; type: cell-based; conditions: BaF3; Parental Ba/F3 with mouse IL-3 1 ng/mL; 72 hours; cell titer glo
Experimental: A Ba/F3 cell line expressing an FLT3 mutation gene was cultured in a culture solution including 90% RPMI, 10% FBS, and an antibiotic (Welgene). 100 uL of the Ba/F3 cell line was put into each of 5,000 wells of a TC-treated 96 well plate (SPL), and then 1 uL of a test compound diluted in dimethylsulfoxide (diluted for each 3 paint from a concentration of 1 mM, total 10 concentrations) was each injected thereinto. Thereafter, the resulting cell lines were incubated in a cell culture incubator for 72 hours. 50 uL of a cell titer glo (Promega) solution was added thereto, the resulting mixture was stored at room temperature for 10 minutes, and then the light emission intensity was measured by using a reader (Envision, PerkinElmer). The light emission intensity was shown as a graph for each final concentration of the test compound, and the GI50 value was obtained by using a Prism 5.0 (GraphPad) software.
A parental Ba/F3 cell line having no FLT3 mutation gene was cultured by using a culture solution supplemented with mouse IL-3 (R&D Systems), such that a final concentration became 1 ng/mL in the culture solution including 90% RPMI, 10% FBS, and an antibiotic (Welgene). The activity was measured by a method which is the same as described above.

MERTK = MERTK (Homo sapiens, UniProt Q12866); test: Kinase inhibitory activity, full kinase panel; type: biochemical; conditions: single concentration of 1 μM, read-out: %Inhibitory ability
Chain of MERTK (Q12866 21-999, species assumed): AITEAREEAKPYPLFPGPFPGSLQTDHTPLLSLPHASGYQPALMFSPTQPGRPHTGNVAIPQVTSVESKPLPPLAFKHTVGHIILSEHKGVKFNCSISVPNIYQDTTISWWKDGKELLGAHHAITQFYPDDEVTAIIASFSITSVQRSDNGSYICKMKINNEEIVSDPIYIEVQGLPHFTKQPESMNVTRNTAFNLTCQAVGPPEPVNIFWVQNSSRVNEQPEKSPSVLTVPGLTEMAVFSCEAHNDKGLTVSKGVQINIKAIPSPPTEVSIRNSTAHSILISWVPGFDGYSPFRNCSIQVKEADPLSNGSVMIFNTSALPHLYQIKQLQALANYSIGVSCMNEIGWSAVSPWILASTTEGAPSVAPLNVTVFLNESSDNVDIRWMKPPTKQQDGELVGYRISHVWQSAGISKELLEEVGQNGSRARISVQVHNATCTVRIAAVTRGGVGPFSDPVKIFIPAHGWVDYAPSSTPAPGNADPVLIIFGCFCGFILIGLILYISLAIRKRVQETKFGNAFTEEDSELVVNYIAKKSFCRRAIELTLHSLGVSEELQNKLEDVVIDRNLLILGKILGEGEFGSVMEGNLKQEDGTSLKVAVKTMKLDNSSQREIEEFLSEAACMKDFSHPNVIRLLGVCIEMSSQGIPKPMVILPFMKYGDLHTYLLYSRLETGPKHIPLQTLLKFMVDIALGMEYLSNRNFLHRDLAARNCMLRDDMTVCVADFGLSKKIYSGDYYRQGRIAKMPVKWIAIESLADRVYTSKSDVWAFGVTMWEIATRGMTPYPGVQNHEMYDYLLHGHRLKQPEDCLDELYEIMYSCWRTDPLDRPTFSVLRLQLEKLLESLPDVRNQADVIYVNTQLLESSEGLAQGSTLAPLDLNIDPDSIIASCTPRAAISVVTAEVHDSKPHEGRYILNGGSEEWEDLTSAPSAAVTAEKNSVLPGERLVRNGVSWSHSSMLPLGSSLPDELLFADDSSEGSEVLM
Experimental: (§2) In order to measure inhibitory activity (% inhibitory ability) against a protein kinase with respect to the compound of the present invention, a biochemical assay was performed in a full kinase panel shown in the following Table 1. As an experimental compound, the (S)-5-((3-fluorophenyl)ethynyl)-N-(piperidin-3-yl)-3-ureidothiophene-2-carboxamide synthesized in Example 24 was used.

HCK = HCK (Homo sapiens, UniProt P08631); test: Kinase inhibitory activity, full kinase panel; type: biochemical; conditions: single concentration of 1 μM, read-out: %Inhibitory ability
Chain of HCK (P08631 whole entry, species assumed): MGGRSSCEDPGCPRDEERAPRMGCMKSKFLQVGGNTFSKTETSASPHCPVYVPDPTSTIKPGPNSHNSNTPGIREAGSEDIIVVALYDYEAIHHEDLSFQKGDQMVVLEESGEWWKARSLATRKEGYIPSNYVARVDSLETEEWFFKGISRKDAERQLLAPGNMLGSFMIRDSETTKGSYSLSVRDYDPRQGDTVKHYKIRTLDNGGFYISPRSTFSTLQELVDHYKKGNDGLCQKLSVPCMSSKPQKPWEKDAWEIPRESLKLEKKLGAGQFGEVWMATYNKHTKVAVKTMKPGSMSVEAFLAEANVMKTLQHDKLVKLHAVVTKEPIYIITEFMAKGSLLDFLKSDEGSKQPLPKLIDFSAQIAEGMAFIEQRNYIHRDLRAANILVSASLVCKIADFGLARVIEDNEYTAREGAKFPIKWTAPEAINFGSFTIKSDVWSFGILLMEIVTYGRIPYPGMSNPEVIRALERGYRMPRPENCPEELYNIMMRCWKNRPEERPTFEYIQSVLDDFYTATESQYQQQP
Experimental: as §2

HPK1 = HPK1 (Homo sapiens, UniProt Q92918); test: Kinase inhibitory activity, full kinase panel; type: biochemical; conditions: single concentration of 1 μM, read-out: %Inhibitory ability
Chain of HPK1 (Q92918 whole entry, species assumed): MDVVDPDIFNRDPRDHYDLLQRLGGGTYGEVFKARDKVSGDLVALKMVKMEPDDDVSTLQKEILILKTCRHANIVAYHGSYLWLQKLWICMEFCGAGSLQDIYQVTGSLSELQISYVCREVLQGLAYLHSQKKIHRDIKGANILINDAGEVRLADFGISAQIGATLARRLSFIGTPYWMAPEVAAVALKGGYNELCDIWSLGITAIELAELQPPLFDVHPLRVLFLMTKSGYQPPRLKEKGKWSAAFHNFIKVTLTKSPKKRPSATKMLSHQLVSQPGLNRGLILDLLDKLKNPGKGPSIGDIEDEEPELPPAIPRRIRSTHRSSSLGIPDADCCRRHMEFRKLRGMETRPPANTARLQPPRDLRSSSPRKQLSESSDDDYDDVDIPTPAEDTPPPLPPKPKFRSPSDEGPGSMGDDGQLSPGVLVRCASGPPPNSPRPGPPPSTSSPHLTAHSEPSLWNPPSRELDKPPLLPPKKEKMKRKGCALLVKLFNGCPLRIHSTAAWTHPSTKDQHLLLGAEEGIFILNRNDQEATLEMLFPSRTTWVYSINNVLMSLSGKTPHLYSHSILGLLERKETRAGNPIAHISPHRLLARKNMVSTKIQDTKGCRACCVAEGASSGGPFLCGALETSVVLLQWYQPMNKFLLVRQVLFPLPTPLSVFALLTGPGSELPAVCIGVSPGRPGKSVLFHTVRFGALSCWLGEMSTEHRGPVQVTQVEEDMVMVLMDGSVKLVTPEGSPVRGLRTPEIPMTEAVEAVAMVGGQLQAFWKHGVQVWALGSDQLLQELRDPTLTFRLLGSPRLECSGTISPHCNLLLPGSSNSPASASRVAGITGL
Experimental: as §2

Work on `CS(=O)(=O)N1CCC(n2cc(C#Cc3cc(NC(N)=O)c(C(=O)N[C@H]4CCCNC4)s3)cn2)CC1` [Example 23, (S)-5-((1-(1-(methylsulfonyl)piperidin-4-yl)-1H-pyrazol-4-yl)ethynyl)-N-(piperidin-3-yl)-3-ureidothiophene-2-carboxamide] yielded a GI50 (FLT3-ITD Ba/F3 cells) of 0.007 µM, a GI50 (FLT3-D835Y Ba/F3 cells) of 0.18 µM and an IC50 (Parental Ba/F3 cells) of over 5 µM.
Work on `Cc1ccc(C#Cc2cc(NC(N)=O)c(C(=O)N[C@H]3CCCNC3)s2)cc1` [Example 24, (S)—N-(piperidin-3-yl)-5-(p-tolylethynyl)-3-ureidothiophene-2-carboxamide] yielded an inhibition at 1 µM (MERTK) of 96.1%, an inhibition at 1 µM (HCK) of 94.9% and an inhibition at 1 µM (HPK1) of 78%. The GI50 (FLT3-ITD Ba/F3 cells) was 0.005 µM, the GI50 (FLT3-D835Y Ba/F3 cells) was 0.039 µM and the IC50 (Parental Ba/F3 cells) was 1.29 µM.
`Cn1cc(C#Cc2cc(NC(N)=O)c(C(=O)NC3CCNC3)s2)cn1` (stereo not drawn) [Example 39, 5-((1-methyl-1H-pyrazol-4-yl)ethynyl)-N-(pyrrolidin-3-yl)-3-ureidothiophene-2-carboxamide trifluoroacetate] showed a GI50 (FLT3-ITD Ba/F3 cells) of 3.73 µM, a GI50 (FLT3-D835Y Ba/F3 cells) of 34 µM and an IC50 (Parental Ba/F3 cells) of over 100 µM.
Work on `NC(=O)Nc1cc(C#Cc2cccc(F)c2)sc1C(=O)NC1CCNC1` (stereo not drawn) [Example 40, 5-((3-fluorophenyl)ethynyl)-N-(pyrrolidin-3-yl)-3-ureidothiophene-2-carboxamide] yielded a GI50 (FLT3-ITD Ba/F3 cells) of 0.164 µM, a GI50 (FLT3-D835Y Ba/F3 cells) of 0.925 µM and an IC50 (Parental Ba/F3 cells) of 14.9 µM.
Work on `Cn1cc(C#Cc2cc(NC(N)=O)c(C(=O)N[C@H]3CCCCNC3)s2)cn1` [Example 41, (S)—N-(azepan-3-yl)-5-((1-methyl-1H-pyrazol-4-yl)ethynyl)-3-ureidothiophene-2-carboxamide trifluoroacetate] yielded a GI50 (FLT3-ITD Ba/F3 cells) of 0.013 µM, a GI50 (FLT3-D835Y Ba/F3 cells) of 0.092 µM and an IC50 (Parental Ba/F3 cells) of 3.69 µM.
Work on `NC(=O)Nc1cc(C#Cc2cn[nH]c2)sc1C(=O)N[C@H]1CCCCNC1` [Example 42, (S)-5-((1H-pyrazol-4-yl)ethynyl)-N-(azepan-3-yl)-3-ureidothiophene-2-carboxamide trifluoroacetate] yielded a GI50 (FLT3-ITD Ba/F3 cells) of 0.137 µM, a GI50 (FLT3-D835Y Ba/F3 cells) of 4.01 µM and an IC50 (Parental Ba/F3 cells) of 54.4 µM.
Compound `CCn1cc(C#Cc2cc(NC(N)=O)c(C(=O)N[C@H]3CCCCNC3)s2)cn1` [Example 43, (S)—N-(azepan-3-yl)-5-((l-ethyl-1H-pyrazol-4-yl)ethynyl)-3-ureidothiophene-2-carboxamide trifluoroacetate] has a GI50 (FLT3-ITD Ba/F3 cells) of 0.01 µM, a GI50 (FLT3-D835Y Ba/F3 cells) of 0.3 µM and an IC50 (Parental Ba/F3 cells) of 4.1 µM.
Compound `CC(C)n1cc(C#Cc2cc(NC(N)=O)c(C(=O)N[C@H]3CCCCNC3)s2)cn1` [Example 44, (S)—N-(azepan-3-yl)-5-((1-isopropyl-1H-pyrazol-4-yl)ethynyl)-3-ureidothiophene-2-carboxamide trifluoroacetate] has a GI50 (FLT3-ITD Ba/F3 cells) of 0.006 µM, a GI50 (FLT3-D835Y Ba/F3 cells) of 0.216 µM and an IC50 (Parental Ba/F3 cells) of 2.45 µM.
Compound `COCCn1cc(C#Cc2cc(NC(N)=O)c(C(=O)N[C@H]3CCCCNC3)s2)cn1` [Example 45, (S)—N-(azepan-3-yl)-5-((1-(2-methoxyethyl)-1H-pyrazol-4-yl)ethynyl)-3-ureidothiophene-2-carboxamide trifluoroacetate] has a GI50 (FLT3-ITD Ba/F3 cells) of 0.038 µM, a GI50 (FLT3-D835Y Ba/F3 cells) of 0.841 µM and an IC50 (Parental Ba/F3 cells) of 16.8 µM.
Work on `NC(=O)Nc1cc(C#Cc2cnn(C3CCOCC3)c2)sc1C(=O)N[C@H]1CCCCNC1` [Example 46, (S)—N-(azepan-3-yl)-5-((1-(tetrahydro-2H-pyran-4-yl)-1H-pyrazol-4-yl)ethynyl)-3-ureidothiophene-2-carboxamide trifluoroacetate] yielded a GI50 (FLT3-ITD Ba/F3 cells) of 0.003 µM, a GI50 (FLT3-D835Y Ba/F3 cells) of 0.042 µM and an IC50 (Parental Ba/F3 cells) of 0.3 µM.
Work on `CS(=O)(=O)N1CCC(n2cc(C#Cc3cc(NC(N)=O)c(C(=O)N[C@H]4CCCCNC4)s3)cn2)CC1` [Example 47, (S)—N-(azepan-3-yl)-5-((1-(1-(methylsulfonyl)piperidin-4-yl)-1H-pyrazol-4-yl)ethynyl)-3-ureidothiophene-2-carboxamide trifluoroacetate] yielded a GI50 (FLT3-ITD Ba/F3 cells) of 0.027 µM, a GI50 (FLT3-D835Y Ba/F3 cells) of 0.533 µM and an IC50 (Parental Ba/F3 cells) of over 5 µM.
For `NC(=O)Nc1cc(C#Cc2ccsc2)sc1C(=O)N[C@H]1CCCCNC1` [Example 48, (S)—N-(azepan-3-yl)-5-(thiophen-3-ylethynyl)-3-ureidothiophene-2-carboxamide trifluoroacetate], the GI50 (FLT3-ITD Ba/F3 cells) was 0.005 µM, the GI50 (FLT3-D835Y Ba/F3 cells) was 0.067 µM and the IC50 (Parental Ba/F3 cells) was 1.59 µM.
For `CC(=O)N1CCC(n2cc(C#Cc3cc(NC(N)=O)c(C(=O)N[C@H]4CCCCNC4)s3)cn2)CC1` [Example 49], the GI50 (FLT3-ITD Ba/F3 cells) was 0.017 µM, the GI50 (FLT3-D835Y Ba/F3 cells) was 0.437 µM and the IC50 (Parental Ba/F3 cells) was over 5 µM.
`NC(=O)Nc1cc(C#Cc2cccc(F)c2)sc1C(=O)N[C@H]1CCCCNC1` [Example 50, (S)—N-(azepan-3-yl)-5-((3-fluorophenyl)ethynyl)-3-ureidothiophene-2-carboxamide] showed a GI50 (FLT3-ITD Ba/F3 cells) of 0.023 µM, a GI50 (FLT3-D835Y Ba/F3 cells) of 0.228 µM and an IC50 (Parental Ba/F3 cells) of 7.8 µM.
Work on `Cn1cc(CCc2cc(NC(N)=O)c(C(=O)N[C@H]3CCCCNC3)s2)cn1` [Example 52, (S)—N-(azepan-3-yl)-5-(2-(1-methyl-1H-pyrazol-4-yl)ethyl)-3-ureidothiophene-2-carboxamide trifluoroacetate] yielded a GI50 (FLT3-ITD Ba/F3 cells) of 6.28 µM, a GI50 (FLT3-D835Y Ba/F3 cells) of over 33 µM and an IC50 (Parental Ba/F3 cells) of over 100 µM.
In the case of `NC(=O)Nc1cc(CCc2cccc(F)c2)sc1C(=O)N[C@H]1CCCNC1` [Example 53], the GI50 (FLT3-ITD Ba/F3 cells) is reported as 0.359 µM, the GI50 (FLT3-D835Y Ba/F3 cells) is reported as 1.61 µM and the IC50 (Parental Ba/F3 cells) is reported as 44.5 µM.
`NC(=O)Nc1cc(CCc2cccc(F)c2)sc1C(=O)N[C@H]1CCCCNC1` [Example 54, (S)—N-(azepan-3-yl)-5-(3-fluorophenethyl)-3-ureidothiophene-2-carboxamide] showed a GI50 (FLT3-ITD Ba/F3 cells) of 1.93 µM, a GI50 (FLT3-D835Y Ba/F3 cells) of 11.5 µM and an IC50 (Parental Ba/F3 cells) of over 33 µM.

— patent publication US10442796B2, “2,3,5-substituted thiophene compound as protein kinase inhibitor” (KOREA INSTITUTE OF SCIENCE AND TECHNOLOGY, priority 2016, dated 2019)
